Experimental data: patent US5403930A, “Substituted salicylic acids” (Pharmacia AB, priority 1991, dated 1995)

Tests used:
[1] = test system: Human Granulocytes; assay: FMLP-induced superoxide production of human granulocytes, 100 μM test compound; format: cell-based; conditions: 100 nM FMLP, 600 000 granulocytes
Procedure: Effects of Test Compounds on Superoxide Production of Human Granulocytes at 100 um Concentration
(§1) Granulocytes were isolated from the heparinized blood from healthy volunteers. The superoxide assay was essentially that of J. M. McCord and I Fridovich (J. Biol. Chem. 244:6049-6055 (1969)) as modified by G Carlin et at. (Pharmacol. Toxicol 65:121-127 (1989)). The reaction mixture contained (final concentrations) 125 μM cytochrome C in Dulbeccos phosphate buffer with Mg and Ca, 100 μM test compound and 600 000 granulocytes treated with 5 μg/ml of cytochalasin B immediately before the experiment. This reaction mixture was preincubated at 37° C. for 10 minutes, whereafter 100 nM N-formyl-L-methionyl-L-leucyl-L-phenylalanine was added to start the reaction, making the final volume 1 ml. After 10 minutes the tubes were centrifuged and the absorbance of the supernatant at 540 and 550 nm was measured. The superoxide production was expressed as the difference in absorbance at these wavelengths.

[2] = rheumatoid arthritis, ulcerative colitis, ankylosing spondylitis, reactive arthritis, psoriasis; cited from earlier work
[3] = test system: human lymphocytes; assay: Concanavalin A-induced proliferation of human lymphocytes ([3H]-thymidine); format: cell-based; conditions: Lymphocyte, 72 h, 250 μM test compound, 2.5 μg/ml Concanavalin A, 3 days, 2 experiments
Procedure: Effect of Compounds on Human Lymphocyte Proliferation Peripheral blood mononuclear cells were isolated from heparinized blood from healthy volunteers by density gradient centrifugation as described by Bain and Pshyk, Transplantation Proc, 4:163-164 (1972). Cell proliferation induced by Concanavalin A was measured in a standard assay such as described in Soderstrom et at., Scand J Immunol, 32:503-516 (1990) using 5% fetal bovine serum in the culture medium. The reaction mixture (final concentrations) consisted of 200 000 cells stimulated with 2.5 μg/ml Concanavalin A and test compounds in a total volume of 0.2 ml. The test compounds were added at the start of the assay, which was run for a total of three days with addition ofradioactive [3H]-thymidine during the last 18 h. Cell bound radioactivity was measured in a liquid scintillation counter.

[4] = test system: Human Granulocytes; assay: FMLP-induced superoxide production of human granulocytes, 10 μM test compound; format: cell-based; conditions: 10 nM FMLP, 400 000 granulocytes
Procedure: Effects of Test Compounds on Superoxide Production of Human Granulocytes
as §1, with “al.” for “at.”, “10” for “100”, “400” for “600”

[5] = test system: T-lymphocytes; conditions: cited from earlier work

For `O=C(O)c1cc(/N=N/c2ccc(S(=O)(=O)Nc3ccccn3)cc2)ccc1O` [Sulfasalazine, reference compound], the inhibition at 100 µM [1] is given as 65.4%, the “Clinical effectiveness in autoimmune diseases” value [2] is given as “clinically effective” and the inhibition at 250 µM [3] is given as 53.7%. The inhibition at 10 µM [4] was 63.5% and the “Inhibition of activation and proliferation of T-lymphocytes” value [5] was “inhibits activation and proliferation of T-lymphocytes”.
